# According to PubChem BioAssay (NCI):
#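 Grown in 96-well plates, cells were treated for 48 hours with each compound at five concentrations. Insufficient inhibition: endpoint recorded as highest concentration tested. Here, GI50 denotes the concentration required for 50% inhibition of growth. Definition used: TGI = concentration required for complete inhibition of growth.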
# Key:
# Test in all cases: growth of human tumour cells (NCI), 48 h
# [1] = system: MDA-MB-435
# [2] = system: SW-620 colon
# [3] = system: IGROV1 ovarian
# [4] = system: NCI-H226 lung
# [5] = system: BT-549 breast
# [6] = system: HCC-2998 colon
# [7] = system: A498 renal
# [8] = system: CAKI-1 renal
# [9] = system: MCF7 breast
# [10] = system: SN12C renal
SMILES,GI50 [1] [µM],TGI [1] [µM],GI50 [2] [µM],TGI [2] [µM],GI50 [3] [µM],TGI [3] [µM],GI50 [4] [µM],TGI [4] [µM],GI50 [5] [µM],TGI [5] [µM],GI50 [6] [µM],TGI [6] [µM],GI50 [7] [µM],TGI [7] [µM],GI50 [8] [µM],TGI [8] [µM],GI50 [9] [µM],TGI [9] [µM],GI50 [10] [µM],TGI [10] [µM]
CC(=O)OC1C(C)OC(Oc2c(-c3ccc(O)cc3)oc3cc(O)cc(O)c3c2=O)C(O)C1OC(C)=O (stereo not given),27.2,> 75.4,35.8,> 100,31.7,> 79.8,36.9,> 100,19.9,54.8,21.9,55.2,> 52.4,> 100,41.4,> 100,28.3,> 100,27.3,97.5
O=C1C2C3C=CC(C2C(=O)N1CN1CCOCC1)C1C2C(=O)N(CN4CCOCC4)C(=O)C2C31 (stereo not given),,> 100,,> 69.8,,> 94.6,,> 84.3,,> 100,,> 61.2,,> 100,,> 100,,> 100,,> 64.4
NC(=O)c1c(NC(=O)c2ccc(C(F)(F)F)cc2Cl)sc2c1CCC(=O)C2,0.393,1.79,0.176,1.36,0.498,2.37,1.34,5.85,0.294,1.91,,3.36,1.95,6.37,0.244,0.881,0.279,4.08,0.36,2.04
C=CCC(NCc1ccccc1)c1cn(C(=O)OCC)c2ccccc12 (stereo not given),20.2,45.9,18.3,41.7,18.5,71.7,,,21.3,46.9,14,28.3,,,18.5,41.6,51.8,> 100,25.7,60.9
O=C1c2c[n+](Cc3ccccc3)ccc2-c2nc3ccccc3c3ccnc1c23,0.434,0.972,0.45,3.71,0.827,4.04,0.537,3.07,1.15,4.85,0.609,1.74,0.532,1.97,1.2,9.37,0.163,0.89,,
O=C1c2ccccc2-n2c1nc1ccc([N+](=O)[O-])cc1c2=O,,,,> 100,,> 100,,> 100,,> 100,,> 100,,35.5,,99.7,,24.4,,> 100
Cc1ncc2c(n1)CCC1=C2OS(=O)(=O)CC1N(C)C (stereo not given),,> 100,,> 100,,> 100,,> 100,,> 100,,,,> 100,,> 100,,> 100,,> 100
O=C(O)CC(CC(=O)O)n1cccc1,,> 100,,> 100,,> 100,,> 100,,> 100,,,,> 100,,> 100,,> 100,,> 100
Cc1cc(N)c2cc(NC(=O)/C=C\c3ccccc3Cl)ccc2n1,1.15,2.52,0.214,0.478,1.61,3.07,2.01,3.69,1.58,3.01,0.485,1.74,1.5,2.95,1.77,3.24,,,1.36,2.69
CCOC(=O)c1c(C)n(Cc2ccc(Cl)cc2Cl)c2c1cc(O)c1[nH]c(Cc3ccccc3)nc12,5.86,24.7,2.21,6.02,3.22,15.8,14,30.9,2.77,7.02,2.41,5.23,,,8.29,26.8,3.24,10.1,4,12.1
CCOC(=O)CCC(NC(=O)c1ccc(Oc2nc3cc(N)cc(N)c3nc2-c2ccccc2)cc1)C(=O)OCC (stereo not given),30.2,> 100,29.5,> 100,18.2,78.7,2.94,25,33.7,> 100,,,,,49.5,> 100,53.6,> 100,,
CCOC(=O)c1nc2sc(Cl)cn2c1/C=N/N=C(N)N,25.3,> 58.2,14.7,43.8,32.7,> 100,26.3,> 55.1,28.3,> 59.6,,,,,27,> 76.9,27.5,> 58.7,24,57.6
CC(=O)OC1CCC2(C)C(=CCC3C2CCC2(C)C3CC3OC4(CCC(C)CN4)C(C)C32)C1 (stereo not given),,> 100,,> 100,,> 100,,> 100,,> 100,,,,> 100,,> 100,,> 100,,> 100
COc1cc2c(cc1OCCCN1CCN(CCCOc3cc4c(cc3OC)C(=O)N3C[C@H](F)C[C@H]3C=N4)CC1)N=C[C@@H]1C[C@@H](F)CN1C2=O,0.105,0.288,0.0746,10.4,0.0696,1.88,,,0.113,0.464,0.121,0.357,0.0947,0.38,0.0683,2,< 0.0195,> 32.7,0.0139,12.2
CN(C)Cc1nsc(N(C)C)n1,,> 100,,> 100,,> 100,,> 100,,> 100,,,,> 100,,> 100,,> 100,,> 100
CC(C)(C)c1ccc(OCCCCCCCN2CCNCC2)cc1,1.57,2.98,1.67,3.26,1.92,3.66,1.86,4.1,1.53,3.01,1.7,3.22,,,1.46,2.81,1.62,3.26,2.73,7.62
